Source: US11452758B2, “Antimicrobial peptide derived from LL37 peptide and uses thereof” (INDUSTRY-ACADEMIC COOPERATION FOUNDATION, CHOSUN UNIVERSITY, priority 2018, dated 2022)
In brackets after ≈: the same amount, converted by molar mass. Where a SMILES comes first, the peptide text is derived from it.

Experiments:
[1] = test system: A. baumannii #13; type: cell-based, Acinetobacter baumannii; settings: #13
Source text: (§1) To compare the antimicrobial activity among the peptides produced by the method of Example 1, the inventors of the present invention measured the minimal growth inhibitory concentration (MIC), which is minimum concentration of the peptide not allowing any […] of bacterial cells.
(§2) Specifically, the bacterial strains described in the following Table 2 were purchased and cultured to a mid-log phase in MHB (Mueller Hinton Broth) medium. Then, after dilution to bacterial cell concentration of 2×10^5 cells/50 μl, the cells were inoculated to a microtiter plate (NUNC, USA). Thereafter, LL37-1, LL37-2, LL37-3 or LL37-4 peptide which has been synthesized in Example 1 above was subjected to serial dilution, ½ times for each, in a 96-well plate. After adding the peptides in an amount of 50 μl to the cell plate, the cells were cultured for 18 hours at 37° C. By using a microtiter plate reader (Merck Elisa reader, Germany), the absorbance was measured at a wavelength of 600 nm to determine the MIC value of each bacterial strain. As a control group, LL37 as a mother peptide was used and subjected to the same process as above to determine the MIC value of each strain.

[2] = test system: A. baumannii KCTC 2508; type: cell-based, Acinetobacter baumannii; settings: KCTC 2508, 18 h
Source text: as §1, §2

[3] = test system: A. baumannii #4; type: cell-based, Acinetobacter baumannii; settings: #4
Source text: as §1, §2

[4] = test system: A. baumannii #5; type: cell-based, Acinetobacter baumannii; settings: #5
Source text: as §1, §2

[5] = test system: A. baumannii #11; type: cell-based, Acinetobacter baumannii; settings: #11
Source text: as §1, §2

[6] = test system: A. baumannii #19; type: cell-based, Acinetobacter baumannii; settings: #19
Source text: as §1, §2

[7] = test system: A. baumannii #12; type: cell-based, Acinetobacter baumannii; settings: #12
Source text: as §1, §2

[8] = test system: A. baumannii #8; type: cell-based, Acinetobacter baumannii; settings: #8
Source text: as §1, §2

[9] = test system: A. baumannii #9; type: cell-based, Acinetobacter baumannii; settings: #9
Source text: as §1, §2

[10] = test system: A. baumannii #10; type: cell-based, Acinetobacter baumannii; settings: #10
Source text: as §1, §2

[11] = test system: A. baumannii #3; type: cell-based, Acinetobacter baumannii; settings: #3
Source text: as §1, §2

[12] = test system: A. baumannii #2; type: cell-based, Acinetobacter baumannii; settings: #2
Source text: as §1, §2

[13] = Cytotoxicity in normal cell line (MTT); type: cell-based, human; settings: human
Experimental: To determine the cytotoxicity of the peptides produced by the method of Example 1 in normal cell line, cytotoxicity was measured by using normal human keratinocyte cell line (HaCaT) and normal human fibroblast cell line (Hs27).
Specifically, normal human keratinocyte (HaCaT) cells and normal human fibroblast (Hs27) cells, which have been cultured in DMEM medium containing 10% FBS (fetal bovine serum), were aliquoted in a microtiter plate to have 1×10^4 cells per well. After culturing them for 24 hours, the cells were subjected to a treatment with LL37, LL37-1, LL37-2, LL37-3 or LL37-4 peptide, each at concentration of 0.5, 1, 2, 4, 8, 16 or 32 μM/well, followed by reaction for 24 hours in a 5% CO2 incubator. After culture, a reaction solution containing 5 mg/ml MTT (Thiazolyl Blue Tetrazolium Bromide) dissolved in phosphate buffered saline (PBS) was added in an amount of 10 μl to each well and the reaction was allowed to occur for 1 hour. After that, the supernatant was discarded, and, by dissolving MTT crystals that are formed by adding 200 μl DMSO (dimethyl sulfoxide), the absorbance at 570 nm was measured to determine the cell survival ability.

[14] = test system: P. aeruginosa ATCC 27853; type: cell-based, Pseudomonas aeruginosa; settings: ATCC 27853, 18 h
Source text: as §1, §2

[15] = test system: E. coli ATCC 25922; type: cell-based, Escherichia coli; settings: ATCC 25922, 18 h
Source text: as §1, §2

[16] = test system: S. typhimurium KCTC 1925; type: cell-based, Salmonella typhimurium; settings: KCTC 1925, 18 h
Source text: as §1, §2

[17] = test system: L. monocytogenes KCTC 3710; type: cell-based, Listeria monocytogenes; settings: KCTC 3710, 18 h
Source text: as §1, §2

[18] = test system: S. aureus ATCC 25923; type: cell-based, Staphylococcus aureus; settings: ATCC 25923, 18 h
Source text: as §1, §2

Question: Which results are given for `CC[C@H](C)[C@H](NC(=O)[C@H](CCCNC(=N)N)NC(=O)[C@H](CCC(N)=O)NC(=O)[C@@H](NC(=O)[C@@H](NC(=O)[C@H](CCCNC(=N)N)NC(=O)[C@H](CCCCN)NC(=O)[C@H](Cc1ccccc1)NC(=O)[C@H](CCC(=O)O)NC(=O)[C@@H](N)CCCCN)[C@@H](C)CC)C(C)C)C(=O)N[C@@H](CCCCN)C(=O)N[C@@H](CC(=O)O)C(=O)N[C@@H](Cc1ccccc1)C(=O)N[C@@H](CC(C)C)C(=O)N[C@@H](CCCNC(=N)N)C(=O)N[C@@H](CC(N)=O)C(N)=O` [LL37-1, KEFKRIVQRIKDFLRN-NH2] (H-KEFKRIVQRIKDFLRN-NH2)?
Answer: Minimal inhibitory concentration [1]: 4 µM (≈ 8.36 µg/mL); Minimal inhibitory concentration [2]: 16 µM (≈ 33.4 µg/mL); Minimal inhibitory concentration [3]: 8 µM (≈ 16.7 µg/mL); Minimal inhibitory concentration [4]: 4 µM (≈ 8.36 µg/mL); Minimal inhibitory concentration [5]: 4 µM (≈ 8.36 µg/mL); Minimal inhibitory concentration [6]: 8 µM (≈ 16.7 µg/mL); Minimal inhibitory concentration [7]: 8 µM (≈ 16.7 µg/mL); Minimal inhibitory concentration [8]: 4 µM (≈ 8.36 µg/mL); Minimal inhibitory concentration [9]: 4 µM (≈ 8.36 µg/mL); Minimal inhibitory concentration [10]: 4 µM (≈ 8.36 µg/mL); Minimal inhibitory concentration [11]: 8 µM (≈ 16.7 µg/mL); Minimal inhibitory concentration [12]: 4 µM (≈ 8.36 µg/mL); viability at 24 h, 0.5 µM ([13]; HaCaT keratinocyte cells): 97%; viability at 24 h, 1 µM ([13]; HaCaT keratinocyte cells): 103%; viability at 24 h, 2 µM ([13]; HaCaT keratinocyte cells): 98%; viability at 24 h, 4 µM ([13]; HaCaT keratinocyte cells): 99%; viability at 24 h, 8 µM ([13]; HaCaT keratinocyte cells): 103%; viability at 24 h, 16 µM ([13]; HaCaT keratinocyte cells): 101%; viability at 24 h, 32 µM ([13]; HaCaT keratinocyte cells): 104%; viability at 24 h, 0.5 µM ([13]; Hs27 fibroblast cells): 100%; viability at 24 h, 1 µM ([13]; Hs27 fibroblast cells): 100%; viability at 24 h, 2 µM ([13]; Hs27 fibroblast cells): 103%; viability at 24 h, 4 µM ([13]; Hs27 fibroblast cells): 95%; viability at 24 h, 8 µM ([13]; Hs27 fibroblast cells): 96%; viability at 24 h, 16 µM ([13]; Hs27 fibroblast cells): 92%; viability at 24 h, 32 µM ([13]; Hs27 fibroblast cells): 95%; Minimal inhibitory concentration [14]: 16 µM (≈ 33.4 µg/mL); Minimal inhibitory concentration [15]: 128 µM (≈ 267 µg/mL); Minimal inhibitory concentration [16]: 32 µM (≈ 66.9 µg/mL); Minimal inhibitory concentration [17]: 128 µM (≈ 267 µg/mL); Minimal inhibitory concentration [18]: 32 µM (≈ 66.9 µg/mL)
